pIC50: −log10 of the molar value.

From ChEMBL document CHEMBL1139926, “Identification of 6-substituted 4-arylsulfonyl-1,4-diazepane-2,5-diones as a novel scaffold for human chymase inhibitors” (Bioorg Med Chem Lett, 2007) come the findings set out here.

In test [1] the target is T1, Chymase (Homo sapiens, UniProt P23946).
T1 sequence (P23946 whole entry): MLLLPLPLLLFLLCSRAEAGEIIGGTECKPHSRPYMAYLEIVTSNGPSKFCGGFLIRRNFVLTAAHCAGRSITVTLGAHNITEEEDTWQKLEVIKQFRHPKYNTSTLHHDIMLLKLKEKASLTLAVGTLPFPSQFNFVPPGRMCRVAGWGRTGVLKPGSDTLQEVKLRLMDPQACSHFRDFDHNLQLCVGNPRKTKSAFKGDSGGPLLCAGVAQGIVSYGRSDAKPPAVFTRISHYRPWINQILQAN
The experiment in a line: Inhibition of human recombinant chymase.

Test [2] concerns the target T2, Neutrophil elastase (Homo sapiens, UniProt P08246).
T2 sequence (P08246 whole entry): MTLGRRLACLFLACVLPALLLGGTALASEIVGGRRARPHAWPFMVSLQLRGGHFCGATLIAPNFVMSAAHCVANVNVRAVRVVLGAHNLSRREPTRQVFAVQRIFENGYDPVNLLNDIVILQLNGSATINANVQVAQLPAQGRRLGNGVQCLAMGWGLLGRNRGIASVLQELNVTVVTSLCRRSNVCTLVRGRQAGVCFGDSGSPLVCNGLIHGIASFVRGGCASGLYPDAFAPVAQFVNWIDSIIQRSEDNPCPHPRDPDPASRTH
The experiment in a line: Inhibition of human neutrophil elastase.

The nature of test [3]: Inhibition of bovine pancreatic alpha chymotrypsin. Also on record: species or system Bos taurus.
Test [4] in a line: Inhibition of bovine pancreatic trypsin. Also on record: species or system Bos taurus.
Test [5] concerns the target T3, Cathepsin G (Homo sapiens, UniProt P08311).
T3 sequence (P08311 whole entry): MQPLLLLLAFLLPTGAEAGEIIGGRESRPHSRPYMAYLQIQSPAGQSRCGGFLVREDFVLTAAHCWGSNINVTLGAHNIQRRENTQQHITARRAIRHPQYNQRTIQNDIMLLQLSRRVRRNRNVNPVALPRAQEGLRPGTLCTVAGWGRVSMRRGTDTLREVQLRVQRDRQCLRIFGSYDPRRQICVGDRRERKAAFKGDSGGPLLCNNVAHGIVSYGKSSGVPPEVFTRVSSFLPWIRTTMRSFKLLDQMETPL
As to the kind of experiment: Inhibition of human neutrophil cathepsin G.

A word on the pIC50: it is −log10 of the IC50, conventionally taken in molar units. For `O=C1CN(S(=O)(=O)c2ccc(Cl)cc2)C(=O)C(Cc2ccc3ccccc3c2)CN1` (racemic), the pIC50 in test [1] is under 5.00.

`O=C1CN(S(=O)(=O)c2ccc(Cl)cc2)C(=O)C(Cc2cccnc2)CN1` (racemic): in test [1], the pIC50 is under 5.00.

For `O=C1CN(S(=O)(=O)c2ccc(Cl)cc2)C(=O)C(Cc2ccncc2)CN1` (racemic), the pIC50 in test [1] was under 5.00.

Take `COc1ccc(Cl)cc1CC1CNC(=O)CN(S(=O)(=O)c2ccc(Cl)cc2)C1=O` (racemic): the pIC50 is under 5.00 in test [2], 6.52 in test [3], under 5.00 in test [4] and 5.54 in test [5].

`O=C1CN(S(=O)(=O)c2ccc(Cl)cc2)C(=O)C(CC2CCCCC2)CN1` (racemic): in test [1], the negative logarithm of the IC50 (pIC50) is under 5.00.

`CC(C)C[C@H](NC(=O)[C@@H](NC(=O)N[C@@H](Cc1ccccc1)C(=O)O)C1CCN=C(N)N1)C(=O)N[C@H](C=O)Cc1ccccc1` (some centres undefined) [CHYMOSTATIN]: the negative logarithm of the IC50 (pIC50) in test [1] is 7.37.
